Results on 17 compounds are retold here after patent publication US20120165319A1, “INHIBITORS OF INTERLEUKIN-1 BETA CONVERTING ENZYME” (VERTEX PHARMACEUTICALS INCORPORATED, priority 1995, published 2012).

Like-named read-outs stand apart in the source and are kept apart here.

The target of experiment [1] is T1, ICE (Homo sapiens, UniProt P29466).
T1 sequence (P29466 120-297 limits assumed): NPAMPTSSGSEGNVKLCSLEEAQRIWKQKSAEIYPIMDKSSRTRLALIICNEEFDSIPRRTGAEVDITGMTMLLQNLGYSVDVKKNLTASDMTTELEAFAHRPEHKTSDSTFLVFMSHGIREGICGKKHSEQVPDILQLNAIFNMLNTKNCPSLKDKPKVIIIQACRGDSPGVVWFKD
T1 sequence (P29466 317-404 limits assumed): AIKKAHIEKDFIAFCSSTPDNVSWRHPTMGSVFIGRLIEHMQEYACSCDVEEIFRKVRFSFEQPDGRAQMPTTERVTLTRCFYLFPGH
Nature of the experiment: Enzyme assay with UV-visible substrate (visible ICE assay, Succinyl-Tyr-Val-Ala-Asp-pNitroanilide). The class given is biochemical. A digest of the protocol: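 Human ICE was preincubated with inhibitor in DMSO and buffer for 15 min at room temperature, then succinyl-Tyr-Val-Ala-Asp-pNA was added. pNA release was followed at 405-603 nm for 20 min at 37° C. Ki and inhibition mode came from fitting rates to standard kinetic equations.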

Experiment [2] concerns IL-1β, human peripheral blood mononuclear cells (PBMC). Nature of the experiment: PBMC cell assay: IL-1β assay with human PBMC or enriched adherent mononuclear cells, LPS-stimulated. The class given is cell-based. The settings on record: Homo sapiens, PBMC. The source says: IL-1β Assay with a Mixed Population of Human Peripheral Blood Mononuclear Cells (PBMC) or Enriched Adherent Mononuclear Cells
Processing of pre-IL-1β by ICE can be measured in cell culture using a variety of cell sources. Human PBMC obtained from healthy donors provides a mixed population of lymphocyte subtypes and mononuclear cells that produce a spectrum of interleukins and cytokines in response to many classes of physiological stimulators. Adherent mononuclear cells from PBMC provides an enriched source of normal monocytes for selective studies of cytokine production by activated cells.
An initial dilution series of test compound in DMSO or ethanol is prepared, with a subsequent dilution into RPMI-10% FBS media (containing 2 mM L-glutamine, 10 mM HEPES, 50 U and 50 ug/ml pen/strep) respectively to yield drugs at 4× the final test concentration containing 0.4% DMSO or 0.4% ethanol. The final concentration of DMSO is 0.1% for all drug dilutions. A concentration titration which brackets the apparent Ki for a test compound determined in an ICE inhibition assay is generally used for the primary compound screen.
Generally 5-6 compound dilutions are tested and the cellular component of the assay is performed in duplicate, with duplicate ELISA determinations on each cell culture supernatant.
PBMC Isolation and IL-1 Assay:
Buffy coat cells isolated from one pint human blood (yielding 40-45 ml final volume plasma plus cells) are diluted with media to 80 ml and LeukoPREP separation tubes (Becton Dickinson) are each overlaid with 10 ml of cell suspension. After 15 min centrifugation at 1500-1800×g, the plasma/media layer is aspirated and then the mononuclear cell layer is collected with a Pasteur pipette and transferred to a 15 ml conical centrifuge tube (Corning). Media is added to bring the volume to 15 ml, gently mix the cells by inversion and centrifuge at 300×g for 15 min. Resuspend the PBMC pellet in a small volume of media, count cells and adjust to 6×10^6 cells/ml.
For the cellular assay, 1.0 ml of the cell suspension is added to each well of a 24-well flat bottom tissue culture plate (Corning), 0.5 ml test compound dilution and 0.5 ml LPS solution (Sigma #L-3012; 20 ng/ml solution prepared in complete RPMI media; final LPS concentration 5 ng/ml). The 0.5 ml additions of test compound and LPS are usually sufficient to mix the contents of the wells. Three control mixtures are run per experiment, with either LPS alone, solvent vehicle control, and/or additional media to adjust the final culture volume to 2.0 ml. The cell cultures are incubated for 16-18 hr at 37° C. in the presence of 5% CO2.
At the end of the incubation period, cells are harvested and transferred to 15 ml conical centrifuge tubes. After centrifugation for 10 min at 200×g, supernatants are harvested and transferred to 1.5 ml Eppendorf tubes. It may be noted that the cell pellet may be utilized for a biochemical evaluation of pre-IL-1β and/or mature IL-1β content in cytosol extracts by western blotting or ELISA with pre-IL-1β specific antisera.
Isolation of Adherent Mononuclear Cells:
PBMC are isolated and prepared as described above. Media (1.0 ml) is first added to wells followed by 0.5 ml of the PBMC suspension. After a one hour incubation, plates are gently shaken and nonadherent cells aspirated from each well. Wells are then gently washed three times with 1.0 ml of media and final resuspended in 1.0 ml media. The enrichment for adherent cells generally yields 2.5−3.0×10^5 cells per well. The addition of test compounds, LPS, cell incubation conditions and processing of supernatants proceeds as described above.
We have used Quantikine kits (R&D Systems) for measurement of mature IL-1β. Assays are performed according to the manufacturer's directions. Mature IL-1β levels of about 1-3 ng/ml in both PBMC and adherent mononuclear cell positive controls are observed. […]

Experiment [3] relates to IL-1β, human whole blood. The experiment is described as follows: Whole blood assay for IL-1β production. The class given is cell-based. To be noted: Homo sapiens, read-out: Whole human blood IC50. The procedure:
The whole blood assay is a simple method for measuring the production of IL-1b (or other cytokines) and the activity of potential inhibitors. The complexity of this assay system, with its full complement of lymphoid and inflammatory cell types, spectrum of plasma proteins and red blood cells is an ideal in vitro representation of human in vivo physiologic conditions.
Pyrogen-free syringes (˜30 cc) Pyrogen-free sterile vacuum tubes containing lyophilized Na2EDTA (4.5 mg/10 ml tube) Human whole blood sample (˜30-50 cc) 1.5 ml eppendorf tubes Test compound stock solutions (˜25 mM in DMSO or other solvent) Endotoxin-free sodium chloride solution (0.9%) and HBSS Lipopolysaccharide (Sigma; Cat. # L-3012) stock solution at 1 mg/ml in HBSS
IL-1β ELISA Kit (R & D Systems; Cat # DLB50)
TNFα ELISA Kit (R & D Systems; Cat # DTA50)
Whole Blood Assay Experimental Procedure:
Set incubator or water bath at 30° C. Aliquot 0.25 ml of blood into 1.5 ml eppendorf tubes. Note: be sure to invert the whole blood sample tubes after every two aliquots. Differences in replicates may result if the cells sediment and are not uniformly suspended. Use of a positive displacement pipette will also minimize differences between replicate aliquots.
Prepare drug dilutions in sterile pyrogen-free saline by serial dilution. A dilution series which brackets the apparent Ki for a test compound determined in an ICE inhibition assay is generally used for the primary compound screen.
Add 25 μl test compound dilution or vehicle control and gently mix the sample. Then add 5.0 μl LPS solution (250 ng/ml stocked prepared fresh: 5.0 ng/ml final concentration LPS), and mix again. Incubate the tubes at 30° C. in a water bath for 16-18 hr with occasional mixing. Alternatively, the tubes can be placed in a rotator set at 4 rpm for the same incubation period. This assay should be set up in duplicate or triplicate with the following controls: negative control—no LPS; positive control—no test inhibitor; vehicle control—the highest concentration of DMSO or compound solvent used in the experiment. Additional saline is added to all control tubes to normalize volumes for both control and experimental whole blood test samples
After the incubation period, whole blood samples are centrifuged for 10 minutes at ˜2000 rpm in the microfuge, plasma is transferred to a fresh microfuge tube and centrifuged at 1000×g to pellet residual platelets if necessary. Plasma samples may be stored frozen at −70° C. prior to assay for cytokine levels by ELISA.
We have used R & D Systems (614 McKinley Place N.E. Minneapolis, Minn. 55413) Quantikine kits for measurement of IL-1β and TNF-α. The assays are performed according to the manufacturer's directions.
We have observed IL-1β levels of ˜1-5 ng/ml in positive controls among a range of individuals. A 1:200 dilution of plasma for all samples has been sufficient in our experiments for ELISA results to fall on the linear range of the ELISA standard curves. It may be necessary to optimize standard dilutions if you observe differences in the whole blood assay. Nerad, J. L. et al., J. Leukocyte Biol., 52, pp. 687-692 (1992).

The mark [4] stands for this setting: * = values obtained upon reassay.

The term Ki denotes a measure of affinity in units of concentration, obtained from inhibition or displacement. Low values mean tighter binding, high ones weaker binding. Broadly, the IC50 is the concentration needed to halve the response being measured. For `CS(=O)(=O)Nc1ccc(C(=O)N[C@H]2CCC(=O)N3CCC[C@@H](C(=O)N[C@H](C=O)CC(=O)O)N3C2=O)cc1` [Compound 447], the Ki in experiment [1] (Table 5) was 5.8 nM. For the same compound, the IC50 in experiment [2] (setting [4]) worked out at 2500 nM; in experiment [3] (setting [4]), 1500 nM.
`CCCC(=O)Nc1ccc(C(=O)N[C@H]2CCC(=O)N3CCC[C@@H](C(=O)N[C@H](C=O)CC(=O)O)N3C2=O)cc1` [Compound 488] showed a Ki in experiment [1] (Table 5) of 1.5 nM. The values for the IC50 in experiment [2] (setting [4]) and in experiment [3] (setting [4]) were 940 nM and 750 nM, respectively.
Turning to `CC(=O)N[C@H]1CCC(=O)N2CCC[C@@H](C(=O)N[C@@H](CC(=O)O)C(=O)COc3cccnc3)N2C1=O` [Compound 283d, [3S(1S,9S)]3-(9-Acetamido-6,10-dioxo-1,2,3,4,7,8,9,10-octahydro-6H-pyridazino[1,2-a][1,2]diazepine-1-carboxamido)-4-oxo-5-(3-pyridyloxy)pentanoic acid], the IC50 is greater than 8000 nM in experiment [2] (Table 17) and 10000 nM in experiment [3] (Table 17).
`CS(=O)(=O)CC(=O)N1C[C@H](NC(=O)c2nccc3ccccc23)C(=O)N(CC(=O)N[C@H](C=O)CC(=O)O)c2ccccc21` [Compound 735] gave a Ki in experiment [1] (Table 27) of 6 nM. Also, the IC50 in experiment [3] (Table 27) was determined as 10000 nM.
The corresponding values for `O=C[C@H](CC(=O)O)NC(=O)CN1C(=O)[C@@H](NC(=O)c2nccc3ccccc23)CN(C(=O)Cc2cccnc2)c2ccccc21` [Compound 734] are 9 nM and 6000 nM.
In experiment [1] (Table 27), `CC(=O)N[C@@H](CC(=O)O)C(=O)N[C@H]1CN(C(=O)CO)c2ccccc2N(CC(=O)N[C@H](C=O)CC(=O)O)C1=O` [Compound 730] gave a Ki of 90 nM. In addition, the IC50 in experiment [3] (Table 27) stood at 8000 nM.
The corresponding values for `Cc1cc(C(=O)N[C@H]2CNc3ccccc3N(CC(=O)N[C@H](C=O)CC(=O)O)C2=O)cc(C)c1O` [Compound 727] are 50 nM and 2300 nM.
Take `O=C[C@H](CC(=O)O)NC(=O)CN1C(=O)[C@@H](NC(=O)c2nccc3ccccc23)CN(C=O)c2ccccc21` [Compound 698, (3S)-3-[(3S)-2-oxo-3-isoquinolin-1-oylamino-5-formyl-2,3,4,5-tetrahydro-1H-1,5-benzodiazepine-1-acetylamino]-4-oxobutyric acid]: the inhibition constant (Ki) in experiment [1] (Table 27) came out at 18 nM. Also, in experiment [3] (Table 27), the IC50 turned out to be 13500 nM.
In the case of `COc1c(Cl)cc(C(=O)N[C@H]2CN(C(=O)CO)c3ccccc3N(CC(=O)N[C@H](C=O)CC(=O)O)C2=O)cc1Cl` [Compound 918], in experiment [1] (Table 17), the Ki is 7 nM. Moreover, the IC50 in experiment [3] (Table 17) was 1150 nM.
In experiment [1] (Table 5), `O=C[C@H](CC(=O)O)NC(=O)[C@@H]1CCCN2C(=O)CC[C@H](NC(=O)c3cnns3)C(=O)N12` [Compound 446] came in with a Ki of 62 nM. In experiment [3] (setting [4]), the IC50 is 3000 nM.
`COCC(=O)N1C[C@H](NC(=O)c2cc(C)c(O)c(C)c2)C(=O)N(CC(=O)N[C@H](C=O)CC(=O)O)c2ccc(F)cc21` [Compound 689b-1, (3S)-3-[(3S)-2-Oxo-3-(3,5-dimethyl-4-hydroxybenzoyl)amino-5-methoxyacetyl-2,3,4,5-tetrahydro-7-fluoro-1H-1,5-benzodiazepine-1-acetylamino]-4-oxobutyric acid]: affinity in experiment [1] (Table 27) was put at a Ki of 3.5 nM. The IC50 in experiment [3] (Table 27) came to 2700 nM.
Compound `O=C[C@H](CC(=O)O)NC(=O)[C@@H]1CCCN2C(=O)CC[C@H](NC(=O)c3ncc[nH]3)C(=O)N12` [Compound 445] showed a Ki in experiment [1] (Table 5) of 135 nM. The IC50 in experiment [3] (setting [4]) worked out at 4000 nM.
With `COc1cccc2oc(C(=O)[C@H](CC(=O)O)NC(=O)[C@@H]3CCCN4C(=O)CC[C@H](NC(=O)CCc5ccccc5)C(=O)N34)nc12` [Compound 135b], the IC50 in experiment [2] (setting [4]) is 1600 nM; in experiment [3] (setting [4]), 1700 nM.
Compound `CCOC(=O)C(=O)N1C[C@H](NC(=O)c2cc(C)c(O)c(C)c2)C(=O)N(CC(=O)N[C@H](C=O)CC(=O)O)c2ccccc21` [Compound 729] returned a Ki in experiment [1] (Table 27) of 28 nM. For the same compound, the IC50 in experiment [3] (Table 27) was 2800 nM.
The corresponding values for `CCC(=O)N1C[C@H](NC(=O)c2cc(C)c(O)c(C)c2)C(=O)N(CC(=O)N[C@H](C=O)CC(=O)O)c2ccccc21` [Compound 724] are 2 nM and 1800 nM.
As to `Nc1c(Cl)cc(C(=O)N[C@H]2CN(C(=O)CO)c3ccccc3N(CC(=O)N[C@H](C=O)CC(=O)O)C2=O)cc1Cl` [Compound 697], in experiment [1] (Table 27), the affinity corresponds to a Ki of 1.8 nM. Besides, in experiment [3] (Table 27), the IC50 came out at 5000 nM.
As for `COc1cc(C(=O)N[C@H]2CN(C(=O)CO)c3ccccc3N(CC(=O)N[C@H](C=O)CC(=O)O)C2=O)cc(OC)c1O` [Compound 732], the Ki in experiment [1] (Table 27) was 5 nM. Moreover, the IC50 in experiment [3] (Table 27) turned out to be 1800 nM.
